The test system of series [1] is methicilin-resistant Staphylococus aureus. Particulars: infected mice, twice-a-day dosing; cited from earlier work.
Series [2] is described as follows: Unbound fraction in plasma (rapid equilibrium dialysis), mouse. It is filed as in vitro ADME. To be noted: mice plasma, 0.3, 1, 3 μM, RED 5 h, read-out: fu,p. The procedure: The unbound fractions of IDP-73152 in various matrices were measured according to the manufacturer’s instructions for the rapid equilibrium dialysis (RED) device (ThermoFisher Scientific, Waltham, MA, USA). Briefly, IDP-73152 was added to the plasma or the microsomal/hepatocyte incubation buffer from various species (i.e., mouse, rat, dog, and human for microsomal incubation; rat for hepatocyte incubation) to obtain final concentrations of the compound at 0.3, 1, and 3 μM. After the membrane insert was placed in the RED plate, the solution containing IDP-73152 was added (400 µL) to the sample chamber, and the dialysis buffer (600 μL) was added to the buffer chamber. The RED plate was sealed with parafilm and then incubated at 37 °C in the orbital shaker (Lab Companion, Daejeon, Korea) at 100 rpm for 5 h. After a 50 μL aliquot was aspirated from both the sample and buffer chambers, an equal volume of protein-free buffer or blank medium was replaced in the aspirated sample or buffer to render the matrices compositionally identical. The IDP-73152 concentration in the buffer/sample chambers (i.e., CBuffer Chamber and CSample Chamber) was determined by an assay. Thus, the fraction unbound was defined as:(2) % Fraction unbound=(CBuffer Chamber/CSample Chamber)×100%

The nature of series [3]: PBPK model prediction, dogs. From the text: In this study, the PBPK model involving ten tissues (i.e., adipose tissue, brain, heart, kidney, liver, lung, muscle, skin, spleen, and testis (Figure 2; see Appendix A for detailed mathematical descriptions)) was considered to be applicable for the description of IDP-73152 PK in rats, mice, dogs, and humans. Physiological variables were obtained from the literature; they are summarized in Supplementary Table S1.
For the estimation of the volume of the distribution of IDP-73512 in rats, the steady-state volume of distribution (Vss) was calculated using the following equation [30]:(10) Vss=VP+Vrbc×EP+∑VT,i×KP,ss,i, where Vp, Vrbc, and VT,i are the volumes of plasma, red blood cells, and tissues, respectively. The erythrocyte-to-plasma partition coefficient (EP), is calculated by EP=1+(BP−1)/Hematocrit . The KP,ss for each tissue obtained from Equation (8) was applied for Equation (10). For the case of non-eliminating organs, the KP,ss was regarded as the tissue-to-plasma partition coefficient (KP) in PBPK equations (Appendix A). For the case of the liver—i.e., the eliminating organ—the KP,ss (KP,ss,LI) had to be corrected to account for the equilibrium being altered by the elimination. Thus, a PBPK-operative KP for liver (KP,LI) was calculated using the following equation [31]:(11) KP,LI=KP,ss,LI/(1−ER), where ER is the hepatic extraction ratio of the compound (i.e., CLh/(QLI·BP)). In this study, a compartmental absorption and transit (CAT) model consisting of stomach and five intestinal segments was considered for the description of the intestinal absorption kinetics of IDP-73152 in animals and humans. We assumed that the initial compartment denoted the stomach (Equation (12)), and the subsequent three compartments represented the small intestine and two additional compartments for the large intestine (i.e., a total of six compartments, with absorption occurring in the five intestinal compartments) (Equation (13)). The differential equations describing the rate of drug absorption and transit in the gastrointestinal tract can be written as:
For the intestine, viz. i = 1~5:(13) dMi/dt=Kt,i−1×Mi−1−(Kt,i+ka,i)×Mi, where Ms is the amount of drug in the stomach; Mi is the amount of drug in the i-th intestinal segment; Ks, Kt,i, and ka,i are the rate constants of gastric emptying, intestinal transit, and the segmental absorption rate, respectively. In Equation (13) at i = 1, Kt,0 and M0 represent Ks and Ms, respectively. […] The absorption rate constant in the intestinal segments in humans, ka,i,human, was assumed to be identical along the segments and calculated as follows: first, Peff was empirically estimated from the Caco-2 cell permeability (Papp):(14) LogPeff=0.4926×LogPapp−0.1454 […]

Molecules are shown by their SMILES.

On to `CC(C)(C)[C@H](NC(=O)[C@H](CC1CCCC1)CN(O)C=O)C(=O)N1CCC(NCc2cc(F)c(F)cc2F)CC1` [IDP-73152], for which, in series [1], the “ED50 (oral dose at which the survival rate was 50%)” value is on record as 16.6 mg/kg. The fraction unbound at 5 h in series [2] was found to be 0.0562 ± 0.0087. For the same compound, the AUC ratio in series [3] (intravenous 10 mg/kg) is recorded as 1.13. The “Cmax ratio without the scaling (SF)” value in series [3] (oral) is given as 0.760. Besides, in series [3] (oral 20 mg/kg), the AUC ratio was 1.08 and the Cmax ratio is listed as 0.832.
